Results taken from patent US20230027295A1, “FXIA INHIBITORS AND PREPARATION METHOD THEREFOR AND PHARMACEUTICAL USE THEREOF” (Shenzhen Salubris Pharmaceuticals Co., Ltd., priority 2019, published 2023).

Columns and labels:
[1] = target: T1, Human Factor Xa (Homo sapiens, UniProt P00742); test: Selectivity to coagulation factors: hFXa (substrate S-2222); type: biochemical
T1 construct: hFXa: Human Factor Xa: 71nkat; purchased 71nkat
Experimental: (§1) Example 52: Investigation of the Selectivity of the Compounds of the Present Invention to Coagulation Factors
(§2) Enzyme: hFXa: Human Factor Xa: 71nkat. hFIIa: HT5146L. hFVIIa: Human Factor VIIa: hFVIIa 4591L. kallikrein: LOT180223.
hFXa buffer: 100 mM NaCl, 5 mM CaCl2, 33% ethylene glycol, 50 mM Tris (pH 7.5).
(§3) 10 mM test compound dissolved in 100% DMSO was diluted with 100% DMSO to 1000, 200, 40, 8, 1.6 μM. 98 μL of enzyme solution was added to each well of a 96-well plate, while 98 μL of buffer was added to the blank wells. 2 μL of compounds of different concentrations were added, while the blank and control wells were added with DMSO instead. They were mixed with a shaker, and incubated at 37° C. for 20 min.
(§4) The concentrations of hFXa and S-2222™ were FXa (1:28) and 800 μmol/L, respectively. The concentrations of hFIIa and S-2238™ were hFIIa (0.06 U/ml) and 500 μmol/L, respectively. The concentrations of hFVIIa and S-2288™ were hFVIIa (80 nM) and 1600 μmol/L, respectively. The concentrations of kallikrein and substrate were kallikrein (20 nM) and 1600 μmol/L, respectively.
(§5) Finally, 100 μL substrate was added to each well, and its absorbance was measured at 405 nm.

[2] = Caco-2 permeability; type: in vitro ADME; settings: human; for efflux ratio at 2 h: Caco-2, Papp(B-A)/Papp(A-B); for Papp A→B at 2 h / Papp B→A at 2 h: Caco-2 monolayer, 2h incubation
Experimental: Example 54: Investigation of the Caco-2 Data of the Compounds of the Present Invention
Medium: DMEM (Corning), FBS (Corning), double antibody (Solarbio), 96-well HTS transwell plate (Corning), Caco-2 cells.
Experimental method: Caco-2 cells were cultured on 96-well HTS transwell plate for 14-18 days, and the TEER value of each well was detected to ensure that the cells in each well formed a complete monolayer. Drug was added and it was incubated for 2h to detect the drug concentrations of A-B and B-A.
Data processing: PappA-B and PappB-A values were calculated: Papp=(VA×[drug]acceptor)/(Area×Time×[drug]initial, donor); Efflux Ratio was calculated: Efflux Ratio=Papp(B-A)/Papp(A-B).

[3] = target: T2, CYP2C9 (Homo sapiens, UniProt P11712); test: CYP enzyme inhibition in liver microsomes: CYP2C9; type: in vitro ADME; settings: 0.2 mg/mL liver microsomes
T2 construct: Liver microsomes (150-donor, Corning, Cat. 452117; Lot; 38292), NADPH; tissue Corning 452117; host or cells: liver microsomes, 150-donor pool
T2 sequence (P11712 whole entry): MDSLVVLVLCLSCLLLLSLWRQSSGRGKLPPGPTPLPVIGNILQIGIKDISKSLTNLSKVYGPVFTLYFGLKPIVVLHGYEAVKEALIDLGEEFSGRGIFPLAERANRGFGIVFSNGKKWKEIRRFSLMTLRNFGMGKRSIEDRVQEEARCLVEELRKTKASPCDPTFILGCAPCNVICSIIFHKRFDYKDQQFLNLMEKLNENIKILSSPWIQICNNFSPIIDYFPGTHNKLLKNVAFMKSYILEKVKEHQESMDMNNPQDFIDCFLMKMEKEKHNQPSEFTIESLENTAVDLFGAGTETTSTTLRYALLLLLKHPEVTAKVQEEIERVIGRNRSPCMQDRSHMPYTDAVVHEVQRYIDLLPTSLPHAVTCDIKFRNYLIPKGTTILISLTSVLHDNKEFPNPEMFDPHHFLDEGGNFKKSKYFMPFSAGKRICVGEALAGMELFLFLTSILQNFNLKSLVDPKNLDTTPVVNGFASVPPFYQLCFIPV
Experimental: (§6) Example 55: Investigation of CYP Enzyme Inhibition by the Compounds of the Present Invention Liver microsomes (150-donor, Corning, Cat. 452117; Lot. 38292), NADPH. […] After pre-incubating for 8 min, 10 mM NADPH was added to start the reaction, and the final concentration of NADPH was 1 mM. After a period of incubation, an internal standard such as methanol was added to stop the reaction. The amount of substrate metabolites generated in each reaction well was detected. […]

[4] = target: T3, CYP3A4 (Homo sapiens, UniProt P08684); test: CYP enzyme inhibition in liver microsomes: CYP3A4; type: in vitro ADME; settings: 0.2 mg/mL liver microsomes
T3 construct: Liver microsomes (150-donor, Corning, Cat. 452117; Lot; 38292), NADPH; tissue Corning 452117; host or cells: liver microsomes, 150-donor pool
T3 sequence (P08684 whole entry): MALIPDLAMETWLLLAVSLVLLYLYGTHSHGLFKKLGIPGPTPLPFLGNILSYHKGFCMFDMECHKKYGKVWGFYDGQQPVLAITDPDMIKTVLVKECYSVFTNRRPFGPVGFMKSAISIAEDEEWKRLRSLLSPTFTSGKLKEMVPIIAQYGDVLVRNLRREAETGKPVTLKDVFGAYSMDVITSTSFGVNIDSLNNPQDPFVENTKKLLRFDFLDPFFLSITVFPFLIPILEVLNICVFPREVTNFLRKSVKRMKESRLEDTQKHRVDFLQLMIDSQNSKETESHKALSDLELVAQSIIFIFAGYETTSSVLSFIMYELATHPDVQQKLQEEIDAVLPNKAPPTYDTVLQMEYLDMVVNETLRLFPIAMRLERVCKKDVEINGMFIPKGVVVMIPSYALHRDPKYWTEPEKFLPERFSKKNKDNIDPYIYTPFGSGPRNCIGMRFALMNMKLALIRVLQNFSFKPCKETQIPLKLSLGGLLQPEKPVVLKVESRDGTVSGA
Experimental: as §6

[5] = Rat pharmacokinetics; type: in vivo, SD rats; design: AUC: concentration or dose not given beside the values; settings: for AUC / Cmax / Tmax / clearance / half-life / Vd: male, SD, plasma; for Vd: read-out: Vss
Text: Example 53: Investigation of the Pharmacokinetic Characteristics of the Compounds of the Present Invention
SD rats: male, 180-250 g, purchased from Guangdong Medical Laboratory Animal Center. Cynomolgus monkey: male, 4-6 kg, purchased from Guangzhou Chunsheng Biological Research Institute Co., Ltd. Beagle dog: male, 8-12 kg, developed in Kanglong Chemical (Ningbo) New Drug Technology Co., Ltd.
Reagents: DMSO (dimethyl sulfoxide), PEG-400 (polyethylene glycol 400), normal brine, heparin, acetonitrile, formic acid, and propranolol (internal standard) are commercially available.
Instrumentation: Thermo Fisher Scientific LC-MS (U300 UPLC, TSQ […] ULTRA triple quadrupole mass spectrometer).
The compound was weighed and dissolved in DMSO-PEG-400-physiological brine (5:60:35, v/v/v) system. After the rats/monkeys were administered intravenously or by gavage, 200 μL of venous blood was collected at 5 min (not collected when administered by gavage), 15 min, 30 min, 1 h, 2 h, 4 h, 6 h, 8 h, and 24 h in heparinized EP tubes, centrifuged at 12000 rpm for 2 min, and the plasma was frozen at −80° C. for testing. A certain amount of the test substance was precisely weighed and dissolved in DMSO to 1 mg/mL, which was used as a stock solution. An appropriate amount of compound stock solution was accurately pipetted and diluted with acetonitrile to prepare a standard series of solutions. 20 μL of each of the above standard series solutions were accurately pipetted, added with 180 μL of blank plasma, vortexed and mixed to prepare plasma samples equivalent to plasma concentrations of 1, 3, 10, 30, 100, 300, 1000, 3000 and 5000 ng/mL. Two-sample analysis was performed for each concentration to establish a standard curve. 20 μL of plasma was taken out, added with 200 μL of internal standard propranolol (5 ng/mL) in acetonitrile, vortexed and mixed. It was centrifuged at 4000 rpm for 5 min, and the supernatant was collected for LC-MS analysis. LC-MS detection conditions were as follows:
Chromatographic column: Thermo Scientific […] GOLD C-18 UPLC column, 100*2.1 mm, 1.9 μm.
Mobile phase: water (0.1% formic acid)-acetonitrile for gradient elution according to the table below.
After blood drug concentrations being detected by LC-MS, WinNonlin 6.1 software was used to calculate pharmacokinetic parameters by non-compartmental model method.

[6] = target: T4, hKallikrein (Homo sapiens, UniProt P03952); test: Selectivity to coagulation factors: kallikrein; type: biochemical
T4 construct: purchased LOT180223
T4 sequence (P03952 391-638 limits assumed): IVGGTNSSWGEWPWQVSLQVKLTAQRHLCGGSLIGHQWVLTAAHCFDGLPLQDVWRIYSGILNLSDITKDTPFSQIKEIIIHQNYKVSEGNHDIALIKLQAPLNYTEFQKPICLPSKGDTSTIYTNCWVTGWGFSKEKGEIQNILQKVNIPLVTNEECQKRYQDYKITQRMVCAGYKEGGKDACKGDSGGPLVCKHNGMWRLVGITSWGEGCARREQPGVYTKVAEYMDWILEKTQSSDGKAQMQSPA
T4 sequence (P03952 20-390 partner limits assumed): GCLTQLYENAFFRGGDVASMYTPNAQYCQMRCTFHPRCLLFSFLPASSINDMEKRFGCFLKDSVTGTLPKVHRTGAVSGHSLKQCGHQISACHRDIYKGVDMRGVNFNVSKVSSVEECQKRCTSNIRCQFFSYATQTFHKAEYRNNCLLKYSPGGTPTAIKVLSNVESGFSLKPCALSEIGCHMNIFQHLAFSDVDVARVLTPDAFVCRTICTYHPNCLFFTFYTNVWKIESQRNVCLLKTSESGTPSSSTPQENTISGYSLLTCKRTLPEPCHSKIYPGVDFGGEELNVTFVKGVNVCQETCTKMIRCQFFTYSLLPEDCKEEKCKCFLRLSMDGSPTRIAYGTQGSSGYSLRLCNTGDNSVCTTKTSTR
Experimental: as §1, §2
kallikrein buffer: 50 mM Tris, 50 mM Mimidazole and 150 mM NaCl (pH 8.2).
as §3, §4, §5

T1 sequence (P00742 235-488 limits assumed): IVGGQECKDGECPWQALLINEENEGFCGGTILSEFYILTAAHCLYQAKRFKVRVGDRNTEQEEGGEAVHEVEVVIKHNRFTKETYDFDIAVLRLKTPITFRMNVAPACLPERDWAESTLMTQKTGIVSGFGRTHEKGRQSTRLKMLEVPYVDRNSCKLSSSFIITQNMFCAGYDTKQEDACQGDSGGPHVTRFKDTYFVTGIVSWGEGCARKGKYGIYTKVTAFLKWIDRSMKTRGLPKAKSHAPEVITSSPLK
T1 sequence (P00742 41-179 partner limits assumed): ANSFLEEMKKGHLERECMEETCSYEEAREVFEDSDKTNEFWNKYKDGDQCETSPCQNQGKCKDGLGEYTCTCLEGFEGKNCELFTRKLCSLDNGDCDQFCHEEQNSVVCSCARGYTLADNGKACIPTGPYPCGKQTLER

IC50 [1] [µM] | efflux ratio at 2 h [2] | Papp A→B at 2 h [2] [×10⁻⁶ cm/s] | Papp B→A at 2 h [2] [×10⁻⁶ cm/s] | IC50 [3] [µM] | IC50 [4] [µM] | F ([5]; ig) [%] | AUC ([5]; iv) [ng·h/mL] | Cmax ([5]; iv) [ng/mL] | Tmax ([5]; iv) [min] | clearance ([5]; iv) [mL/min/kg] | half-life ([5]; iv) [min] | Vd ([5]; iv) [L/kg] | AUC ([5]; po, ig) [ng·h/mL] | Cmax ([5]; po, ig) [ng/mL] | Tmax ([5]; po, ig) [min] | half-life ([5]; po, ig) [min] | IC50 [6] [µM] | SMILES
> 100 | 16.3 | 1.54 | 25.1 | > 50 | > 50 | 24.6 | 1020 | 2500 | 4.98 | 16.4 | 10.9 | 0.269 | 2510 | 768 | 75 | 151 | 0.524 ± 0.0602 | COc1nn([C@@H](Cc2ccccc2)C(=O)Nc2ccc(C(=O)O)cc2)c(=O)cc1-c1cc(Cl)ccc1C(C)=O [Example 19, (S)-4-(2-(4-(2-acetyl-5-chlorophenyl)-3-methoxy-6-oxopyridazin-1(6H)-yl)-3-phenylpropanamido)benzoic acid]
> 100 | 18.3 | 1.2 | 21.9 | ~50 | > 50 | 5.4 | 922 | 2200 | 4.98 | 23.5 | 99 | 0.741 | 788 | 242 | 20 | 226 | 0.103 ± 0.0149 | CCC(=O)c1ccc(Cl)cc1-c1cc(=O)n([C@@H](Cc2ccccc2)C(=O)Nc2ccc(C(=O)O)cc2)nc1OC [Example 32]
